Here are results for 1 molecule from publication PMC6826616, “Topical 2′-Hydroxyflavanone for Cutaneous Melanoma” (Cancers, 2019).

Where two headings read alike, the source gives them in different places.

Data set [1] is described as follows: Blood counts and serum chemistry after topical 2HF. In kind it is in vivo, B16-F0 melanoma-bearing C57B mice. The settings on record: topical 12 mg 2HF/0.1 mL PLO gel. As for the experimental part:
Blood samples were collected from representative mice from the control and 2HF-treated with 12 mg/0.1 mL PLO gel topically each day for 8 weeks just before euthanasia. These samples were used for hematologic, hepatic, renal, and metabolic profiling. A Hemavet instrument (Drew Scientific, Dallas, TX, USA) was used for determination of hematologic parameters.

The next data set deals with B16-F10 cells. The data set can be described thus: MTT cytotoxicity assay, B16-F10. The data set is classed as cell-based. Conditions: Mus musculus. The source says:
(§1) We studied the growth-inhibitory effects of 2HF on the B16-F0 and B16-F10 murine melanoma cell lines as well as on the SK-MEL-24 human melanoma cell line. B16-F10 and SK-MEL-24 have been shown in previous studies to be highly resistant to treatment and much more invasive than B16-F0 [32]. […] The absorption value measured upon reduction of the MTT dye by functional mitochondria is an indirect measure of cell number that cannot distinguish inhibited cell proliferation from apoptotic or necrotic cell death. By counting viable (trypan-blue dye-excluding) cells using a hemacytometer, we verified that 2HF did indeed cause cell death.
(§2) Figure 1 Mouse and human melanoma cell survival following 2′-hydroxyflavanone (2HF) treatment.
(§3) The IC50 of 2HF on B16-F0, B16-F10, and SK-MEL-24 cells was determined by MTT cytotoxicity assay. Cells were harvested and Trypan Blue dye exclusion test was used to determine the number of viable cells present in a cell suspension using a hemocytometer. The cell suspension was diluted to 5 × 10^4 cells/mL with Dulbecco’s Modified Eagle’s Medium (DMEM) complete medium and 5000 cells/well were plated in 96-well plates. After 24 h incubation at 37 °C, cells were treated with 2HF concentrations ranging from 0–200 µM (8 replicates per plate). After 48 or 72 h incubation, 40 µL of MTT (5 mg/mL) solution was added. After 4 h incubation, the plate was centrifuged at 700× g for 5 min and medium was aspirated completely. Then, 50 µL DMSO was added to each well to dissolve the purple precipitate on the rocking platform for about 15 min. The absorbance was then measured at 490 nm using a 96-well microplate reader (Spectramax Plus, Molecular Devices, Inc, San Jose, CA, USA).

A short description of data set [2]: LC-MS/MS analysis of 2HF in serum after topical application. Conditions: topical 12 mg 2HF/0.1 mL PLO gel each day for 8 weeks, blood within 2 h after final dosage. In kind it is in vivo, C57BL/6 mice. On the procedure: C57BL/6 mice were administered either 0.1 mL PLO gel or 12 mg 2HF in 0.1 mL PLO gel topically each day for 8 weeks. On the last day, the blood was collected within 2 h after final dosage, and subjected to LC-MS/MS analyses according to established protocol. Briefly, serum from control and 2HF-treated mice was extracted twice with 500 µL ethyl acetate and the organic layers were collected and evaporated to dryness in a speed-vac. The residue was reconstituted in 40 µL methanol containing 0.1% formic acid (FA) for analysis. An LC-MS method was developed for the quantitative analysis of 2HF using an Agilent 6490 triple quadrupole coupled with an Agilent 1290 UHPLC system. In short, the binary pump delivered buffers A (0.1% FA in water) and buffer B (0.1% FA in acetonitrile) over 10 min with the following gradient: From 10% B to 20% B in 1 min, then ramp to 90% B at 6 min, 10% B at 8 min, 10% B at 8.5 min, column equilibration post analysis was 2 min. An Agilent Zorbax, 0.5 × 150 mm, 5 µm particle size was used for the separation at a flow rate of 50 µL/min.

For a further data set, the system named is B16-F0 cells. Put plainly: MTT cytotoxicity assay, B16-F0. In kind it is cell-based. The settings on record: Mus musculus, B16F0.
Source text: as §1, §2, §3
(Tetrazolium assays rely on reduction of a dye to a coloured formazan, in cell work by metabolically active cells.)

In the next data set the test system is SK-MEL-24 cells. Put plainly: MTT cytotoxicity assay, SK-MEL-24. In kind it is cell-based. The settings on record: Homo sapiens.
Source text: as §1, §2, §3

The mark [3] stands for this setting: MTT, 72 h, mean ±SD, n = 5, read-out: IC50 at 72 h (growth/survival).
[4] abbreviates: Table 1, agent alone, read-out: IC50.

Regarding `O=C1CC(c2ccccc2O)Oc2ccccc21` (centres unmarked) [2HF, 2′-hydroxyflavanone], in data set [1], the “adverse effects on blood counts, renal function, or liver enzymes” value is “no adverse effects”. Also, the IC50 in the data set on B16-F10 cells (setting [3]) worked out at 47 ± 6 µM; in the data set on B16-F10 cells (setting [4]) it was 42 ± 1.83 µM; in the data set with B16-F0 cells (setting [3]), 38 ± 4 µM; with B16-F0 cells (setting [4]), 38.6 ± 1.61 µM; in the data set with SK-MEL-24 cells (setting [3]) it was 44 ± 6 µM; in the data set on SK-MEL-24 cells (setting [4]) it was 44.9 ± 1.67 µM. The same molecule showed a 2HF in serum in data set [2] of 4.3 ± 0.4 µM.
